In ChEMBL document CHEMBL6114969, “Ultra-short lipopeptides containing d-amino acid exhibiting excellent stability and antibacterial activity against gram-positive bacteria” (Eur J Med Chem, 2025):
In brackets after ≈: the same amount, converted by molar mass. Activity calls are given as the source filed them. The calls are words filed in the database; no cut-off is given here. Where a SMILES comes first, the peptide text is derived from it. Bridges are numbered along the chain shown (N, C = ends). [ ]: non-standard residue; d: D form. The star is where a group is joined. X1 = CC[C@H](C)CCCCC(=O)*; dDab = NCC[C@@H](N)C(=O)O; Dab = NCC[C@H](N)C(=O)O

Experiments:
[1] = Toxicity in Balb/c mouse assessed as cell swelling in lung at 20 mg/kg, ip measured after 7 days by H and E staining based analysis; type: organism-based; conditions: in vivo, 168 h, time 7 day
[2] = Toxicity in Balb/c mouse assessed as change in serum ALT level at 20 mg/kg, ip measured after 7 days; type: organism-based; conditions: in vivo, 168 h, time 7 day
[3] = Toxicity in Balb/c mouse assessed as change in serum AST level at 20 mg/kg, ip measured after 7 days; type: organism-based; conditions: in vivo, 168 h, time 7 day
[4] = Toxicity in Balb/c mouse assessed as inflammatory cell infiltration in liver at 20 mg/kg, ip measured after 7 days by H and E staining based analysis; type: organism-based; conditions: in vivo, 168 h, time 7 day
[5] = Toxicity in Balb/c mouse assessed as cell swelling in liver at 20 mg/kg, ip measured after 7 days by H and E staining based analysis; type: organism-based; conditions: in vivo, 168 h, time 7 day
[6] = Toxicity in Balb/c mouse assessed as cell swelling in kidney at 20 mg/kg, ip measured after 7 days by H and E staining based analysis; type: organism-based; conditions: in vivo, 168 h, time 7 day
[7] = Toxicity in Balb/c mouse assessed as kidney pigmentation at 20 mg/kg, ip measured after 7 days; type: organism-based; conditions: in vivo, 168 h, time 7 day
[8] = Toxicity in Balb/c mouse assessed as change in liver co-efficient at 20 mg/kg, ip measured after 7 days; type: organism-based; conditions: in vivo, 168 h, time 7 day
[9] = Toxicity in Balb/c mouse assessed as cell swelling in spleen at 20 mg/kg, ip measured after 7 days by H and E staining based analysis; type: organism-based; conditions: in vivo, 168 h, time 7 day
[10] = Toxicity in Balb/c mouse assessed as spleen pigmentation at 20 mg/kg, ip measured after 7 days; type: organism-based; conditions: in vivo, 168 h, time 7 day
[11] = Toxicity in Balb/c mouse assessed as inflammatory cell infiltration in kidney at 20 mg/kg, ip measured after 7 days by H and E staining based analysis; type: organism-based; conditions: in vivo, 168 h, time 7 day
[12] = Toxicity in Balb/c mouse assessed as spleen atrophy at 20 mg/kg, ip measured after 7 days; type: organism-based; conditions: in vivo, 168 h, time 7 day
[13] = Toxicity in Balb/c mouse assessed as kidney atrophy at 20 mg/kg, ip measured after 7 days; type: organism-based; conditions: in vivo, 168 h, time 7 day
[14] = Toxicity in Balb/c mouse assessed as change in serum CREA level at 20 mg/kg, ip measured after 7 days; type: organism-based; conditions: in vivo, 168 h, time 7 day
[15] = Toxicity in Balb/c mouse assessed as change in serum BUN level at 20 mg/kg, ip measured after 7 days; type: organism-based; conditions: in vivo, 168 h, time 7 day
[16] = tested on: Staphylococcus aureus; assay: Antibacterial activity against methicillin-resistant Staphylococcus aureus ATCC 33591 incubated for 18 to 24 hrs by broth microdilution method; type: functional; conditions: time 18-24 hrs
[17] = tested on: Staphylococcus aureus; assay: Induction of drug resistance in methicillin-resistant Staphylococcus aureus ATCC 33591 assessed as fold increase in MIC at sub-MIC measured after 14 passages relative to control; type: functional
[18] = tested on: Staphylococcus aureus; assay: Induction of drug resistance in Staphylococcus aureus ATCC 25923 assessed as fold increase in MIC at sub-MIC measured after 10 passages relative to control; type: functional
[19] = tested on: Staphylococcus epidermidis; assay: Antibacterial activity against Staphylococcus epidermidis ATCC 12228 incubated for 18 to 24 hrs by broth microdilution method; type: functional; conditions: time 18-24 hrs
[20] = tested on: Enterococcus faecalis; assay: Antibacterial activity against Enterococcus faecalis ATCC 29212 incubated for 18 to 24 hrs by broth microdilution method; type: functional; conditions: time 18-24 hrs
[21] = tested on: Staphylococcus aureus; assay: Antibacterial activity against Staphylococcus aureus ATCC 25923 incubated for 18 to 24 hrs by broth microdilution method; type: functional; conditions: time 18-24 hrs
[22] = tested on: Staphylococcus aureus; assay: Induction of drug resistance in Staphylococcus aureus ATCC 25923 at sub-MIC measured after 2 passages; type: functional, organism-based
[23] = tested on: Staphylococcus aureus; assay: Antibacterial activity against Staphylococcus aureus ATCC 29213 incubated for 18 to 24 hrs by broth microdilution method; type: functional; conditions: time 18-24 hrs
[24] = tested on: Staphylococcus aureus; assay: (§1) Antibacterial activity against methicillin-resistant Staphylococcus aureus ATCC 33591 infected in Balb/c mouse model of pneumonia infection assessed as reduction in bleeding in lung at 10 mg/kg, ip administered thrice at 4, 8 and 12 hrs post-infection measured after 24 hrs post-infection by H and E staining based analysis; type: functional, organism-based; conditions: time 20.0 hrs
[25] = tested on: Staphylococcus aureus; assay: Antibacterial activity against methicillin-resistant Staphylococcus aureus ATCC 33591 infected in Balb/c mouse model of pneumonia infection assessed as reduction in bacterial load in lung at 10 mg/kg, ip administered thrice at 4, 8 and 12 hrs post-infection measured after 24 hrs post-infection; type: functional, organism-based; conditions: time 20.0 hrs
[26] = tested on: Staphylococcus aureus; assay: (§2) Antibacterial activity against methicillin-resistant Staphylococcus aureus ATCC 33591 infected in Balb/c mouse model of skin wound infection assessed as reduction in bacterial load in skin at 10 mg/kg, ip administered thrice at 1, 24 and 48 hrs post-infection measured after 72 hrs post-infection; type: functional, organism-based; conditions: time 71.0 hrs
[27] = tested on: Staphylococcus aureus; assay: (§3) Antibacterial activity against methicillin-resistant Staphylococcus aureus ATCC 33591 infected in Balb/c mouse model of pneumonia infection assessed as reduction in IL-1beta activity in lung at 10 mg/kg, ip administered thrice at 4, 8 and 12 hrs post-infection measured after 24 hrs post-infection by IHC analysis; type: functional, organism-based; conditions: time 20.0 hrs
[28] = tested on: Staphylococcus aureus; assay: as §1, with “inflammatory cell infiltration” for “bleeding”; type: functional, organism-based; conditions: time 20.0 hrs
[29] = tested on: Staphylococcus aureus; assay: as §3, with “TNF-alpha” for “IL-1beta”; type: functional, organism-based; conditions: time 20.0 hrs
[30] = tested on: Staphylococcus aureus; assay: as §2, with “IL-1beta activity” for “bacterial load”, “14 days by IHC analysis” for “72 hrs post-infection”; type: functional, organism-based; conditions: time 14.0 day
[31] = tested on: Staphylococcus aureus; assay: as §2, with “in keratosis” for “in bacterial load”, “in wound surface” for “in skin”, “after 14 days by IHC analysis” for “after 72 hrs post-infection”; type: functional, organism-based; conditions: time 14.0 day
[32] = tested on: Staphylococcus aureus; assay: as §2, with “TNF-alpha activity” for “bacterial load”, “14 days by IHC analysis” for “72 hrs post-infection”; type: functional, organism-based; conditions: time 14.0 day
[33] = tested on: Staphylococcus aureus; assay: as §2, with “inflammatory cell infiltration” for “bacterial load”, “14 days by H and E staining based analysis” for “72 hrs post-infection”; type: functional, organism-based; conditions: time 14.0 day
[34] = tested on: Staphylococcus aureus; assay: as §1, with “alveolar contraction” for “bleeding”; type: functional, organism-based
[35] = tested on: Staphylococcus aureus; assay: Antibacterial activity against methicillin-resistant Staphylococcus aureus ATCC 33591 infected in Balb/c mouse model of acute systemic infection at 10 mg/kg, ip measured after 5 days; type: functional, organism-based; conditions: time 5.0 day
[36] = tested on: Staphylococcus aureus; assay: Antibacterial activity against drug-resistant Staphylococcus aureus ATCC 25923 incubated for 18 to 24 hrs; type: functional; conditions: time 18-24 hrs
[37] = tested on: Staphylococcus aureus; assay: Induction of drug resistance in Staphylococcus aureus ATCC 25923 assessed as fold increase in MIC at sub-MIC measured after 7 passages relative to control; type: functional
[38] = tested on: Staphylococcus aureus; assay: Antibacterial activity against ciprofloxacin-resistant methicillin-resistant Staphylococcus aureus ATCC 33591 incubated for 18 to 24 hrs; type: functional; conditions: time 18-24 hrs
[39] = tested on: Staphylococcus aureus; assay: Induction of drug resistance in methicillin-resistant Staphylococcus aureus ATCC 33591 assessed as fold increase in MIC at sub-MIC measured after 8 passages relative to control; type: functional
[40] = tested on: Staphylococcus aureus; assay: Antibacterial activity against polymyxin B-resistant methicillin-resistant Staphylococcus aureus ATCC 33591 incubated for 18 to 24 hrs; type: functional; conditions: time 18-24 hrs
[41] = tested on: Staphylococcus aureus; assay: Induction of drug resistance in methicillin-resistant Staphylococcus aureus ATCC 33591 at sub-MIC measured after 4 passages; type: functional, organism-based
[42] = tested on: Staphylococcus aureus; assay: Antibacterial activity against drug-resistant methicillin-resistant Staphylococcus aureus ATCC 33591 incubated for 18 to 24 hrs; type: functional; conditions: time 18-24 hrs
[43] = tested on: Staphylococcus aureus; assay: Antibacterial activity against polymyxin B-resistant Staphylococcus aureus ATCC 25923 incubated for 18 to 24 hrs; type: functional; conditions: time 18-24 hrs
[44] = tested on: Staphylococcus aureus; assay: Antibacterial activity against ciprofloxacin-resistant Staphylococcus aureus ATCC 25923 incubated for 18 to 24 hrs; type: functional; conditions: time 18-24 hrs

Question: With `CC(C)CCCCC(=O)N[C@@H](CCN)C(=O)N[C@H](C(=O)N[C@@H](CCN)C(=O)N[C@H]1CCNC(=O)[C@H]([C@@H](C)O)NC(=O)[C@H](CCN)NC(=O)[C@H](CCN)NC(=O)[C@H](CC(C)C)NC(=O)[C@@H](Cc2ccccc2)NC(=O)[C@H](CCN)NC1=O)[C@@H](C)O.CC[C@H](C)CCCCC(=O)N[C@@H](CCN)C(=O)N[C@H](C(=O)N[C@@H](CCN)C(=O)N[C@H]1CCNC(=O)[C@H]([C@@H](C)O)NC(=O)[C@H](CCN)NC(=O)[C@H](CCN)NC(=O)[C@H](CC(C)C)NC(=O)[C@@H](Cc2ccccc2)NC(=O)[C@H](CCN)NC1=O)[C@@H](C)O` (X1-[Dab]T[Dab][Dab][Dab][dF]L[Dab][Dab]T; lactam 4-C) as the molecule, how does the Activity [1] read?
Answer: Toxic

Question: What about the Activity [2] of the same molecule?
Answer: Non-toxic

Question: And the Activity [3]?
Answer: Non-toxic

Question: And the Activity [4]?
Answer: Toxic

Question: What about the Activity [5] of the same molecule?
Answer: Toxic

Question: And the Activity [6]?
Answer: Toxic

Question: What about the Activity [7] of the same molecule?
Answer: Toxic

Question: What about the Activity [8] of the same molecule?
Answer: Toxic

Question: What about the Activity [9] of the same molecule?
Answer: Toxic

Question: And the Activity [10]?
Answer: Toxic

Question: And the Activity [11]?
Answer: Toxic

Question: And the Activity [12]?
Answer: Toxic

Question: And the Activity [13]?
Answer: Toxic

Question: And the Activity [14]?
Answer: Toxic

Question: And the Activity [15]?
Answer: Non-toxic

Question: With `C[C@@H](O)[C@H]1C(=O)N2C(C(=O)O)=C(SCCNC=N)C[C@H]12` [IMIPENEM ANHYDROUS] as the molecule, how does the MIC [16] read?
Answer: 32 µM (≈ 9.58 µg/mL)

Question: And the “fold change (FC)” value [17]?
Answer: 64

Question: And the “fold change (FC)” value [18]?
Answer: 2048

Question: What about the MIC [19] of the same molecule?
Answer: 4 µM (≈ 1.2 µg/mL)

Question: What about the MIC [20] of the same molecule?
Answer: 2 µM (≈ 0.599 µg/mL)

Question: And the MIC [21]?
Answer: 4 µM (≈ 1.2 µg/mL)

Question: And the Activity [22]?
Answer: Active

Question: And the MIC [23]?
Answer: 2 µM (≈ 0.599 µg/mL)

Question: What does the source list for `CC(C)CCCCC(=O)N[C@@H](CCN)C(=O)N[C@H](C(=O)N[C@@H](CCN)C(=O)N[C@H]1CCNC(=O)[C@H]([C@@H](C)O)NC(=O)[C@H](CCN)NC(=O)[C@H](CCN)NC(=O)[C@H](CC(C)C)NC(=O)[C@@H](Cc2ccccc2)NC(=O)[C@@H](CCN)NC1=O)[C@@H](C)O.CC[C@H](C)CCCCC(=O)N[C@@H](CCN)C(=O)N[C@H](C(=O)N[C@@H](CCN)C(=O)N[C@H]1CCNC(=O)[C@H]([C@@H](C)O)NC(=O)[C@H](CCN)NC(=O)[C@H](CCN)NC(=O)[C@H](CC(C)C)NC(=O)[C@@H](Cc2ccccc2)NC(=O)[C@@H](CCN)NC1=O)[C@@H](C)O` (X1-[Dab]T[Dab][Dab][dDab][dF]L[Dab][Dab]T; lactam 4-C)?
Answer: Activity [24]: Active; Activity [25]: Active; Activity [26]: Active; Activity [27]: Active; Activity [28]: Active; Activity [29]: Active; Activity [30]: Active; Activity [31]: Active; Activity [32]: Active; Activity [33]: Active; Activity [34]: inactive; Activity [35]: Active

Question: What does the source list for `CNC(C)[C@@H]1CC[C@@H](N)[C@@H](O[C@H]2[C@H](O)[C@@H](O[C@H]3OC[C@](C)(O)[C@H](NC)[C@H]3O)[C@H](N)C[C@@H]2N)O1.CN[C@@H]1[C@@H](O)[C@@H](O[C@@H]2[C@@H](O)[C@H](O[C@H]3O[C@H](C(C)N)CC[C@H]3N)[C@@H](N)C[C@H]2N)OC[C@]1(C)O.CN[C@@H]1[C@@H](O)[C@@H](O[C@@H]2[C@@H](O)[C@H](O[C@H]3O[C@H](CN)CC[C@H]3N)[C@@H](N)C[C@H]2N)OC[C@]1(C)O` (stereo not given in full)?
Answer: MIC [16]: 128 µM; MIC [36]: 128 µM; fold change (FC) [37]: 64; MIC [38]: > 128 µM; fold change (FC) [39]: 256; MIC [19]: 1 µM; MIC [20]: 16 µM; MIC [40]: > 128 µM; Activity [41]: Active; MIC [42]: 128 µM; MIC [21]: 16 µM; MIC [43]: 128 µM; Activity [22]: Active; MIC [44]: 128 µM; MIC [23]: 16 µM
